Reference: PMC8238522 (Biochemical Journal, 2021)

What was measured:
Assay in all cases: spectrophotometric NADH formation at […] nm, Hill fit
Assay type in all cases: biochemical
[1] = target: T1, OsPGDH2 (Oryza sativa, UniProt B7FAD2)
T1 sequence (B7FAD2 64-621): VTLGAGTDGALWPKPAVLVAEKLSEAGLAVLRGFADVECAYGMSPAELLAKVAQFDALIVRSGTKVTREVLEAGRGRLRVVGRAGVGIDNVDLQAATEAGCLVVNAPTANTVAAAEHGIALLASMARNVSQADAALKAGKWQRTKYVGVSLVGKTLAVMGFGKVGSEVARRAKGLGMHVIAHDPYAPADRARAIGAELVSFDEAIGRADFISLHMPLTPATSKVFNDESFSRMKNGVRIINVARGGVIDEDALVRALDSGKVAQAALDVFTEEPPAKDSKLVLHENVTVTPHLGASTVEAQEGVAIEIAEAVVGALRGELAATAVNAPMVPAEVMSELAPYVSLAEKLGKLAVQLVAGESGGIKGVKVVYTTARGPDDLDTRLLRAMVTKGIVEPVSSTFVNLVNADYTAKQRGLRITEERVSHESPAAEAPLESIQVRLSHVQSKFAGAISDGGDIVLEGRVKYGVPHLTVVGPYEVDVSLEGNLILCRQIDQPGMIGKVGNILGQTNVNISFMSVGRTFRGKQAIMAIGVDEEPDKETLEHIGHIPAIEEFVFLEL

[2] = target: T2, OsPGDH1 (Oryza sativa, UniProt B7F6I8)
T2 sequence (B7F6I8 68-613): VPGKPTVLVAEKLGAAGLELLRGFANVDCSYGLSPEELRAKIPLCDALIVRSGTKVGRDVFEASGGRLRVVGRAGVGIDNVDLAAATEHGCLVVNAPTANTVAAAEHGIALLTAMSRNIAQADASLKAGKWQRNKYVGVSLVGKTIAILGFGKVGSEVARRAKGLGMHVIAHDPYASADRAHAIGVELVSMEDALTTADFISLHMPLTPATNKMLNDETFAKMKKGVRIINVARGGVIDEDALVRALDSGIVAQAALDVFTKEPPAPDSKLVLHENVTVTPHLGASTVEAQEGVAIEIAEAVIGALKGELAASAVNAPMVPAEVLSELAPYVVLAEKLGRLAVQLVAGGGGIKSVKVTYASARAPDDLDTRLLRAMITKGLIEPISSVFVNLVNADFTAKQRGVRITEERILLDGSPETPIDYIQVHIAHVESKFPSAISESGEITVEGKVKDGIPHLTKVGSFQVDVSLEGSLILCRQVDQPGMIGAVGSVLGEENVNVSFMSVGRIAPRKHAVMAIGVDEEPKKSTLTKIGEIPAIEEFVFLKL

[3] = target: T3, AmtriPGDH1 (Amborella trichopoda, UniProt U5D351)
T3 sequence (U5D351 73-618): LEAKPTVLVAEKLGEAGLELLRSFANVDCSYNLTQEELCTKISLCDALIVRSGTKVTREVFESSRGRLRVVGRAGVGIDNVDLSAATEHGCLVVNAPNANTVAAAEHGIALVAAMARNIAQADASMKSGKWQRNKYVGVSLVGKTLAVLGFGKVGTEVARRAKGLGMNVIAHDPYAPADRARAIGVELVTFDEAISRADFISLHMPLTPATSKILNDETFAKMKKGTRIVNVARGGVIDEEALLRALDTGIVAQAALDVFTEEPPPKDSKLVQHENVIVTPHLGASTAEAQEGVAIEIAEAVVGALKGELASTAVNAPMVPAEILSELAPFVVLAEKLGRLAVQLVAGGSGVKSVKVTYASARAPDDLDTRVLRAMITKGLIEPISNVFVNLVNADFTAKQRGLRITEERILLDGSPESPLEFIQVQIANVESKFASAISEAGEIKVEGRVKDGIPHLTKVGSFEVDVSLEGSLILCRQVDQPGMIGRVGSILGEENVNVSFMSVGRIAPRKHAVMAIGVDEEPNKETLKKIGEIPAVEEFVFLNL

EC50 [1] [µM] | EC50 [2] [µM] | EC50 [3] [µM] | Compound
950 ± 40 |  |  | C[C@H](N)C(=O)O [L-Alanine]
 | 33 ± 3 | 20 ± 2 | N[C@@H](CCS)C(=O)O [L-Homocysteine]
 | 640 ± 30 | 750 ± 50 | CSCC[C@H](N)C(=O)O [L-Methionine]
 | 6400 ± 600 | 1200 ± 100 | N[C@@H](CO)C(=O)O [L-Serine]
